Results from patent US20230174486A1, “NON-LYSOSOMAL GLUCOSYLCERAMIDASE INHIBITORS AND USES THEREOF” (ALECTOS THERAPEUTICS lNC., priority 2020, published 2023).

Tests used:
human GBA2 = target: T1, human GBA2 (Homo sapiens, UniProt Q9HCG7); assay: Inhibition of GBA2 in cell lysate (4-methylumbelliferone-β-D glucopyranoside substrate); type: biochemical; details: homogenate of HEK293T cells stably overexpressing human GBA2, pH 5.5, 37° C., GCase inhibitor present
T1 construct: cellular homogenate
T1 sequence (Q9HCG7 1-927): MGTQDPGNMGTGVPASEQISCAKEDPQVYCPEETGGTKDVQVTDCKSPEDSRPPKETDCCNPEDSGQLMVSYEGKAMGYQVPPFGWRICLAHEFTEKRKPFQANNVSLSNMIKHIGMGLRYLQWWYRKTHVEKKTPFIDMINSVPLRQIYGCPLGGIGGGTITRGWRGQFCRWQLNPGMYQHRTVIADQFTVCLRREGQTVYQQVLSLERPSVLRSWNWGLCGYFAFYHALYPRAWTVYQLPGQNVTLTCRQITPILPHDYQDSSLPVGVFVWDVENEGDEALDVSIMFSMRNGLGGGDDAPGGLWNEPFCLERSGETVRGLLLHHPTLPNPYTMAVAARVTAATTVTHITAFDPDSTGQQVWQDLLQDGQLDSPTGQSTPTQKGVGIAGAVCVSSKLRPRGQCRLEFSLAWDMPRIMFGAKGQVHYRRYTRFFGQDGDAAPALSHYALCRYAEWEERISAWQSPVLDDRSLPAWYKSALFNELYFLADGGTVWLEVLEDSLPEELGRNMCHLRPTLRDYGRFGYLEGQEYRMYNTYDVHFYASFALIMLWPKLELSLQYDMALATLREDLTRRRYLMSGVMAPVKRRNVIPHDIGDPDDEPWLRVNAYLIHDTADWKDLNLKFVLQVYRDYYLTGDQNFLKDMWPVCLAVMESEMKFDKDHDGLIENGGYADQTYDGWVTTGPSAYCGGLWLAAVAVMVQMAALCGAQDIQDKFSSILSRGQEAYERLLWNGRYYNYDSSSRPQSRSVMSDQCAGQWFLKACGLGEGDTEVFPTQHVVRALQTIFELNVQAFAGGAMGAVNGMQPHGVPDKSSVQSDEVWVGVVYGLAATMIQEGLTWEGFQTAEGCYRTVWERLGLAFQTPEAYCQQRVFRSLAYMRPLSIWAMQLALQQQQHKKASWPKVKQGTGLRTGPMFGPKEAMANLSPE
Procedure: Stable GBA2-expressing HEK293T cells were generated as follows. The PCR-amplified human GBA2 (GBA2 nucleotide accession number BC011363) using the following primers: Sense 5’---CGCAAATGGGCGGTAGGCGTG---3’ and antisense 5’---TAGTCAGCCATGGGGCGGAGA ---3’) was cloned into pLenti-GIII-CMV by ABM Inc. The correctness of the construct was verified by sequencing. Lentivirus particles containing GBA2 in the pLenti-GIII-CMV plasmid were prepared using a third Generation Virus Packaging Mix (ABM cat# LV053-G074) in HEK293T cells and supplied as a virus particle suspension. The virus suspension was used for infection of HEK293T cells. Cell populations stably expressing human GBA2 were selected using puromycin for several weeks as determined by activity assays and western blot.
Various concentrations of test compounds were prepared in DMSO and then diluted into buffer consisting of 100 mM citric acid, 200 mM disodium phosphate with 1% v/v C10E6, pH 5.5. Cellular homogenates (0.25 mg/mL) of the stable HEK293T-overexpressing GBA2 cell line were preincubated for 10 min on ice with an inhibitor of GCase (20 µM (6R,7R,8S)-8-ethyl-4-azaspiro[2.5]octane-6,7-diol). The reaction solution consisted of 20 µL of 750 µM 4-methylumbelliferone-β-D glucopyranoside in 5% DMSO in the same buffer, 20 µL of GBA2-cellular homogenate pre-treated with (6R,7R,8S)-8-ethyl-4-azaspiro[2.5]octane-6,7-diol and 20 µL of various concentrations of test compound in 10% DMSO in the same buffer. The final concentrations in the reaction were 0.083 mg/mL GBA2-cellular homogenate, 250 µM 4-methylumbelliferone-β-D glucopyranoside, and various concentrations of inhibitor. The inhibitor and GBA2-cellular homogenate were preincubated together for 5 min at 37° C. The reaction was initiated by addition of substrate and allowed to proceed for 20 min at 37° C. to assess GBA2 activity. Reactions were stopped by the addition of an equal volume (60 µL) of 0.5 M NaOH, 0.3 M glycine, pH 10.5. Fluorescence was measured on a Biotek Synergy H4 plate reader at wavelengths of 365 nm for excitation and 450 nm for emission. Incubations without added enzyme or added inhibitors were used to define no enzyme activity and maximal enzyme activity, respectively. IC50 values were determined by fitting the data to a log[inhibitor concentration] versus response curve using GraphPad Prism. IC50 values were calculated as the concentration of inhibitor required to inhibit GBA2 activity by 50%.

[1] = target: T2, human non-lysosomal glucosylceramidase (GBA2) (Homo sapiens, UniProt Q9HCG7); assay: Binding specificity for GBA2 over other molecules (ratio of Ki or IC50 values); type: biochemical; details: qualitative statement, no values or other enzyme given
T2 sequence (Q9HCG7 1-927): T1 sequence (Q9HCG7 1-927)
Text: In some embodiments, one or more of the compounds according to the invention may specifically bind a GBA2. In alternative embodiments, one or more of the compounds according to the invention may specifically bind the active site of a GBA2. […] In alternative embodiments, one or more of the compounds according to the invention may specifically bind the human non-lysosomal glucosylceramidase (GBA2) over the human lysosomal glucosylceramidase (GCase) and/or the human cytosolic glucosylceramidase (GBA3). In alternative embodiments, one or more of the compounds according to the invention may specifically bind the human non-lysosomal glucosylceramidase (GBA2) over the human glucosylceramide synthase (GCS). In alternative embodiments, one or more of the compounds according to the invention may specifically bind the human non-lysosomal glucosylceramidase (GBA2) over an intestinal alpha-glucosidase, where the intestinal alpha-glucosidase may be a sucrase-isomaltase or a maltase-glucoamylase.

Row | SMILES | GBA2 IC50 (human GBA2) | binding specificity, Ki(other molecule)/Ki(GBA2) or IC50(other molecule)/IC50(GBA2) [1]
1 | C[C@@H](CN1C[C@H](O)[C@@H](O)[C@H](O)[C@H]1CO)c1ccccc1 (single isomer, unassigned) [Example 7] | ∗∗∗ | –
2 | C[C@H](CN1C[C@H](O)[C@@H](O)[C@H](O)[C@H]1CO)c1ccccc1 (single isomer, unassigned) [Example 8] | ∗∗∗ | enhanced binding specificity
3 | OC[C@@H]1[C@@H](O)[C@H](O)[C@@H](O)CN1CCc1ccccc1F [Example 1, (2R,3R,4R,5S)-1-(2-fluorophenethyl)-2-(hydroxymethyl)piperidine-3,4,5-triol] | ∗∗∗ | –
4 | OC[C@@H]1[C@@H](O)[C@H](O)[C@@H](O)CN1CCc1cccc(F)c1 [Example 2, (2R,3R,4R,5S)-1-(3-fluorophenethyl)-2-(hydroxymethyl)piperidine-3,4,5-triol] | ∗∗∗ | –
5 | OC[C@@H]1[C@@H](O)[C@H](O)[C@@H](O)CN1CCc1ccc(F)cc1 [Example 3, (2R,3R,4R,5S)-1-(4-fluorophenethyl)-2-(hydroxymethyl)piperidine-3,4,5-triol] | ∗∗∗ | –
6 | OC[C@@H]1[C@@H](O)[C@H](O)[C@@H](O)CN1CCc1c(F)cccc1F [Example 4, (2R,3R,4R,5S)-1-(2,6-difluorophenethyl)-2-(hydroxymethyl)piperidine-3,4,5-triol] | ∗∗∗ | enhanced binding specificity
7 | OC[C@@H]1[C@@H](O)[C@H](O)[C@@H](O)CN1CCc1cccc(C(F)(F)F)c1 [Example 5, (2R,3R,4R,5S)-2-(hydroxymethyl)-1-(3-(trifluoromethyl)phenethyl)piperidine-3,4,5-triol] | ∗∗∗ | –
8 | OC[C@@H]1[C@@H](O)[C@H](O)[C@@H](O)CN1CCc1ccc(C(F)(F)F)cc1 [Example 6, (2R,3R,4R,5S)-2-(hydroxymethyl)-1-(4-(trifluoromethyl)phenethyl)piperidine-3,4,5-triol] | ∗∗∗ | –
9 | OC[C@@H]1[C@@H](O)[C@H](O)[C@@H](O)CN1CCc1ccccn1 [Example 9, (2R,3R,4R,5S)-2-(hydroxymethyl)-1-(2-(pyridin-2-yl)ethyl)piperidine-3,4,5-triol] | ∗∗ | –
10 | OC[C@@H]1[C@@H](O)[C@H](O)[C@@H](O)CN1CCc1cccs1 [Example 10, (2R,3R,4R,5S)-2-(hydroxymethyl)-1-(2-(thiophen-2-yl)ethyl)piperidine-3,4,5-triol] | ∗∗∗ | –
11 | OC[C@@H]1[C@@H](O)[C@H](O)[C@@H](O)CN1CCc1ccsc1 [Example 11, (2R,3R,4R,5S)-2-(hydroxymethyl)-1-(2-(thiophen-3-yl)ethyl)piperidine-3,4,5-triol] | ∗∗∗ | –
12 | OC[C@H]1[C@@H](O)[C@H](O)[C@@H](O)CN1CC1CCCCC1 [Example 12, (2S,3R,4R,5S)-1-(cyclohexylmethyl)-2-(hydroxymethyl)piperidine-3,4,5-triol] | ∗∗∗ | enhanced binding specificity
13 | OC[C@H]1[C@@H](O)[C@H](O)[C@@H](O)CN1C[C@H]1CC[C@H](C(F)(F)F)CC1 [Example 13, (2S,3R,4R,5S)-2-(hydroxymethyl)-1-(((1r,4R)-4-(trifluoromethyl)cyclohexyl)methyl)piperidine-3,4,5-triol] | ∗∗∗ | enhanced binding specificity
14 | CC(C)(F)[C@H]1CC[C@@H](CN2C[C@H](O)[C@@H](O)[C@H](O)[C@@H]2CO)CC1 [Example 14, (2S,3R,4R,5S)-1-(((1s,4S)-4-(2-fluoropropan-2-yl)cyclohexyl)methyl)-2-(hydroxymethyl)piperidine-3,4,5-triol] | ∗∗∗ | enhanced binding specificity
15 | OC[C@H]1[C@@H](O)[C@H](O)[C@@H](O)CN1CC1Cc2ccccc2C1 [Example 15, (2S,3R,4R,5S)-1-((2,3-dihydro-1H-inden-2-yl)methyl)-2-(hydroxymethyl)piperidine-3,4,5-triol] | ∗∗∗ | enhanced binding specificity
16 | OC[C@H]1[C@@H](O)[C@H](O)[C@@H](O)CN1CCC1CCCCC1 [Example 16, (2S,3R,4R,5S)-1-(2-cyclohexylethyl)-2-(hydroxymethyl)piperidine-3,4,5-triol] | ∗∗∗ | enhanced binding specificity
17 | OC[C@H]1[C@@H](O)[C@H](O)[C@@H](O)CN1CCCC1CCCCC1 [Example 17, (2S,3R,4R,5S)-1-(3-cyclohexylpropyl)-2-(hydroxymethyl)piperidine-3,4,5-triol] | ∗∗∗ | –
18 | OC[C@H]1[C@@H](O)[C@H](O)[C@@H](O)CN1CCc1ccccc1F [Example 18, (2S,3R,4R,5S)-1-(2-fluorophenethyl)-2-(hydroxymethyl)piperidine-3,4,5-triol] | ∗∗∗ | –
19 | OC[C@H]1[C@@H](O)[C@H](O)[C@@H](O)CN1CCc1cccc(Cl)c1F [Example 19, (2S,3R,4R,5S)-1-(3-chloro-2-fluorophenethyl)-2-(hydroxymethyl)piperidine-3,4,5-triol] | ∗∗∗ | –
20 | OC[C@H]1[C@@H](O)[C@H](O)[C@@H](O)CN1CCc1ccc(-c2ccccc2)cc1 [Example 20, (2S,3R,4R,5S)-1-(2-([1,1′-biphenyl]-4-yl)ethyl)-2-(hydroxymethyl)piperidine-3,4,5-triol] | ∗∗∗ | enhanced binding specificity
21 | OC[C@H]1[C@@H](O)[C@H](O)[C@@H](O)CN1C[C@H]1CCN(c2nc(C(F)(F)F)cs2)C1 [Example 26, (2S,3R,4R,5S)-2-(hydroxymethyl)-1—(((R)—1-(4-(trifluoromethyl)thiazol-2-yl)pyrrolidin-3-yl)methyl)piperidine-3,4,5-triol] | ∗∗∗ | –
22 | OC[C@H]1[C@@H](O)[C@H](O)[C@@H](O)CN1C[C@H]1CCCN(c2nc(C(F)(F)F)cs2)C1 [Example 30, (2S,3R,4R,5S)-2-(hydroxymethyl)-1—(((R)—1-(4-(trifluoromethyl)thiazol-2-yl)piperidin-3-yl)methyl)piperidine-3,4,5-triol] | ∗∗∗ | –
